Measurements published in PMC6934184, “Selective DNA-PKcs inhibition extends the therapeutic index of localized radiotherapy and chemotherapy” (The Journal of Clinical Investigation, 2019).

Target: T1, GRK4 (Homo sapiens, UniProt P32298)
T1 construct: purchased Thermo Fisher Scientific (Life Technologies) SelectScreen
Assay: SelectScreen Z'LYTE
Assay type: biochemical
Procedure, shortened: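 SelectScreen broad panel; activity (Z'LYTE, Adapta) plus binding formats. ATP: Km app for CSF1R Z'LYTE; 10 for CAMK1 Adapta. Readout = % per kinase.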

T1 sequence (P32298 whole entry): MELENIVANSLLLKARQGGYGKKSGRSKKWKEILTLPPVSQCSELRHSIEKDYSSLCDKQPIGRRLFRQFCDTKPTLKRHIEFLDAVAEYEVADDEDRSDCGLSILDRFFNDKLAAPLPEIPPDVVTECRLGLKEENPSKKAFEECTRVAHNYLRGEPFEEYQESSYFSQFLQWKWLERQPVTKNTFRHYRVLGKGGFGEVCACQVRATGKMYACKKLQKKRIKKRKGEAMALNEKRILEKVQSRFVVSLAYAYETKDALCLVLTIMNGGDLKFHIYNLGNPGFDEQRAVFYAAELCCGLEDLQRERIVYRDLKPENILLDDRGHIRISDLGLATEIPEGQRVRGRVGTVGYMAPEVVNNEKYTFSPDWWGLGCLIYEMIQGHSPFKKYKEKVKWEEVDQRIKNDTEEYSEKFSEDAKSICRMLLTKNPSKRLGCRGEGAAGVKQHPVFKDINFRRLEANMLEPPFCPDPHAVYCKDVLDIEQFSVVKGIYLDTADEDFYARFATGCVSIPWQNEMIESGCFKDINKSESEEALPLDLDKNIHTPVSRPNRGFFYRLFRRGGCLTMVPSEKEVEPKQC

**Q.** `CN(C(=O)CN1CCOCC1)c1ccc2sc3c(-c4cccc5c(=O)cc(N6CC7CCC(C6)O7)oc45)cccc3c2c1` [NU5455] was tested. Which inhibition at 1 µM did it give?
**A.** Its inhibition at 1 µM is 3.5%.
